Data set [1] has as its system Hepatoma AH 130. The data set is described as follows: in vivo. On the set-up: species or system SPF Wistar rats. An outline of the steps: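 Therapeutic index (LD50/ED50) was derived from tumour weight against controls at day-8 sacrifice, with ED50 the dose giving 50% tumour reduction. Rats (SPF Wistar) bore 5 × 10^6 hepatoma cells implanted intraperitoneally. A single i.p. injection followed on the day after implantation.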

Data set [2] concerns Walker carcinosarcoma 256. The data set is described as follows: Walker carcinosarcoma 256 test. The data set is classed as in vivo, Sprague Dawley rats. As to conditions: for Lethality: died/used animals. The text has this:
(§1) The experimental design and the interpretation of the results have been in accordance with the standards set by the CCNSC (Cancer Chemotherapy Reports, January 1959 and December 1962), and by the DR&D (Cancer Chemotherapy Reports, September 1972, Vol. 3, No. 2).
(§2) The way of administration is by the intraperitoneal route (i.p.) in each case.
Walker carcinosarcoma 256
Experimental animals: Sprague Dawley rats.
Tumour implant: Tumour pieces with 2-4 mm diameter, subcutaneously.
Therapy: Daily injections i.p. for 5 days starting on the day following implantation.
Termination: The animals are killed on the 9th day.
Evaluation: Weights of tumours of test animals are compared with those of control animals. The differences, in per cent of weights of tumours of control animals, give per cent tumour inhibition.
The lethality is given as the number of animals which died in the experiment/the number of animals used in the experiments.

Data set [3] has as its system Ehrlich ascites tumour, ELD hyperdiploid (46 chromosomes). The data set can be described thus: Ehrlich ascites tumour test (LD50, ED50, therapeutic index). The data set is classed as in vivo, SPF NMRI mice. The following applies: additional compounds, result in words.
Text: The high activity against tumours is further illustrated in these experiments by comparisons with known antitumour agents used in the therapy. The therapeutic indexes (T.I.), i.e. the ratios LD50/ED50, are in all comparisons much more favourable with the compounds of the present invention.
LD50 is the dose that caused a 50 percent lethality of the animals, ED50 is the dose that caused a 50 percent reduction of tumour size.
as §1, §2
Ehrlich ascites tumour, ELD hyperdiploid (46 chromosomes)
Experimental animals: SPF NMRI mice.
Tumour implant: 2 × 10^6 tumour cells i.p.
(§3) Therapy: One injection i.p. on the day following implantation.
Termination: The animals are killed on the 8th day.
Evaluation: Weights of tumours of test animals compared with those of control animals.

For data set [4], the system named is Lymphatic leukemia L 1210. The data set can be described thus: Lymphatic leukemia L 1210 test. The data set is classed as in vivo, CDF1 (C3H×DBA/2)F1 mice. The following applies: dose of 1000 mg/kg, comparative compounds.
Text: as §1, §2
Lymphatic leukemia L 1210
Experimental animals: CDF1 (C3H×DBA/2)F1 mice.
Tumour implant: 10^5 tumour cells i.p.
as §3
Evaluation: a) The survival time of the test animals (t) expressed as the percentage of that of control animals (c).
b. Weight change in the test animals (T) compared with that of the control animals (c) up to the 5th day.
c. The mortality rate must not exceed 35% in the test animals on the 5th day of therapy.

Where [5] appears, read: doses 1 × 250, 1 × 500 and 1 × 1000 mg/kg respectively.
The mark [6] stands for this setting: additional compounds, result in words.

Molecules are shown by their SMILES.

Regarding `CN(CCCl)C(=O)O[C@H]1CC[C@@]2(C)C(=CC[C@@H]3[C@@H]2CC[C@]2(C)C(=O)CC[C@@H]32)C1` [dehydroepiandrosterone-3β-N-(2-chloroethyl)-N-methyl carbamate, reference compound], the anti-tumor activity result in data set [1] (setting [5]) was “inactive”. Further, in data set [2] (5×500 mg/kg i.p.), the Tumour inhibition % was less than 10% and the Lethality is 0/8.

For the compound `C[C@]12CC[C@H](OC(=O)N(CCCBr)N=O)CC1=CC[C@@H]1[C@@H]2CC[C@]2(C)C(=O)CC[C@@H]12` [dehydroepiandrosterone - 3β-N-(3-bromopropyl)-N-nitroso carbamate], in data set [2] (5×125 mg/kg i.p.), the Tumour inhibition % is reported as 39% and the Lethality is 0/8. In addition, the anti-tumor activity entry in data set [3] is recorded as “exhibit anti-tumor activity”.

Turning to `C[C@]12CCC(=O)C[C@@H]1CC[C@@H]1[C@@H]2CC[C@]2(C)[C@@H](OC(=O)N(C(=O)N(CCCl)N=O)C3CCCCC3)CC[C@@H]12` [dihydrotestosteron-17β-/N^2-cyclohexyl-N^4-(2-chloroethyl)-N^4-nitroso allophanate/], the anti-tumor activity result in data set [1] (setting [6]) and in data set [3] was “exhibit anti-tumor activity” each time.

Take `CCCOc1ccc(CCC(=O)O[C@H]2CC[C@H]3[C@@H]4CCc5cc(OC(=O)N(CCCl)N=O)ccc5[C@H]4CC[C@]23C)cc1` [estradiol-3-N-(2-chloroethyl)-N-nitroso carbamate-17β-(p-propoxyphenyl-propionate)]: the anti-tumor activity result in data set [1] (setting [6]) and in data set [3] was “exhibit anti-tumor activity” each time.

For `C#C[C@]1(OC(=O)N(CCCl)N=O)CC[C@H]2[C@@H]3CCC4=CC(=O)CC[C@@H]4[C@H]3CC[C@@]21C` [17α-ethynyl-19-nortestosterone-17β-N-(2-chloroethyl)-N-nitroso carbamate], the anti-tumor activity entry in data set [1] (setting [6]) and in data set [3] was “exhibit anti-tumor activity” throughout.

`C[C@]12CC[C@H](OC(=O)N(C(=O)N(CCCl)N=O)C3CCCCC3)CC1=CC[C@@H]1[C@@H]2CC[C@]2(C)C(=O)CC[C@@H]12` [dehydroepiandrosterone-3β-/N^2-cyclohexyl-N^4-(2-chloroethyl)-N^4-nitroso allophanate/]: the anti-tumor activity result in data set [1] (setting [6]) and in data set [3] was “exhibit anti-tumor activity” in each case.

Regarding `C[C@]12CC[C@@H](OC(=O)N(CCCl)N=O)C[C@H]1CC[C@@H]1[C@@H]2CC[C@]2(C)C(=O)CC[C@@H]12` [etiocholanolone-3α-N-(2-chloroethyl)-N-nitroso carbamate], the anti-tumor activity entry in data set [1] (setting [6]) and in data set [3] was “exhibit anti-tumor activity” throughout.

As to `COc1ccc(N(C(=O)O[C@H]2CC[C@@]3(C)C(=CC[C@@H]4[C@@H]3CC[C@]3(C)C(=O)CC[C@@H]43)C2)C(=O)N(CCCl)N=O)cc1` [dehydroepiandrosterone-3β-/N^2-(p-methoxyphenyl)-N^4-(2-chloroethyl)-N^4-nitroso allophanate/], the anti-tumor activity entry in data set [1] (setting [6]) and in data set [3] was “exhibit anti-tumor activity” each time.

With `C[C@]12CC[C@H](OC(=O)N(C(=O)N(CCCl)N=O)c3ccccc3)CC1=CC[C@@H]1[C@@H]2CC[C@]2(C)C(=O)CC[C@@H]12` [dehydroepiandrosterone-3β-/N^2-phenyl-N^4-(2-chloroethyl)-N^4-nitroso allophanate/], the anti-tumor activity result in data set [1] (setting [6]) and in data set [3] was “exhibit anti-tumor activity” throughout.

Consider `CC(=O)O[C@H]1CC[C@H]2[C@@H]3CCc4cc(OC(=O)N(CCCl)C(=O)N(CCCl)N=O)ccc4[C@H]3CC[C@]12C` [estradiol-17β-acetate-3-/N^2,N^4-bis (2-chloroethyl)-N-^4-nitroso allophanate/], for which the anti-tumor activity entry in data set [1] (setting [6]) and in data set [3] was “exhibit anti-tumor activity” each time.

Turning to `C[C@]12CC[C@H]3[C@@H](CCC4=CC(=O)CC[C@@]43C)[C@@H]1CC[C@@H]2C(=O)COC(=O)N(CCCl)N=O` [deoxycorticosterone-21-N-(2-chloroethyl)-N-nitroso carbamate], the anti-tumor activity entry in data set [1] (setting [6]) and in data set [3] was “exhibit anti-tumor activity” in each case.

For `CCCCCCC(=O)O[C@H]1CC[C@H]2[C@@H]3CC[C@H]4C[C@H](OC(=O)N(CCCl)N=O)CC[C@]4(C)[C@H]3CC[C@]12C` [androstanediol-3α-N-(2-chloroethyl)-N-nitroso carbamate-17β-oenanthate], the anti-tumor activity result in data set [1] (setting [6]) and in data set [3] was “exhibit anti-tumor activity” throughout.

Take `C[C@]12CC[C@H](OC(=O)NCCCl)CC1=CC[C@@H]1[C@@H]2CC[C@]2(C)C(=O)CC[C@@H]12` [dehydroepiandrosterone-3β-N-(2-chloroethyl) carbamate, reference compound]: the anti-tumor activity result in data set [1] (setting [5]) was “inactive”. Further, the “effect on L 1210” value in data set [4] is “without effect”.

On to `CC(=O)Oc1ccc2c(c1)CC[C@@H]1[C@@H]2CC[C@]2(C)[C@@H](OC(=O)N(C(=O)N(CCCl)N=O)C3CCCCC3)CC[C@@H]12` [estradiol-3-acetate-17β-/N^2-cyclohexyl-N^4-(2-chloroethyl)-N^4-nitroso allophanate/], for which the anti-tumor activity entry in data set [1] (setting [6]) and in data set [3] was “exhibit anti-tumor activity” throughout.

For `CC[C@]1(OC(=O)N(CCCl)N=O)CC[C@H]2[C@@H]3CCC4=CC(=O)CC[C@@H]4[C@H]3CC[C@@]21C` [17α-ethyl-19-nortestosterone-17β-N-(2-chloroethyl)-N-nitroso carbamate], the anti-tumor activity result in data set [1] (setting [6]) and in data set [3] was “exhibit anti-tumor activity” throughout.

Take `C[C@]12CC[C@H](OC(=O)N(C(=O)N(CCCl)N=O)c3ccc(Cl)cc3)CC1=CC[C@@H]1[C@@H]2CC[C@]2(C)C(=O)CC[C@@H]12` [dehydroepiandrosterone-3β-/N^2-(p-chlorophenyl)-N^4-(2-chloroethyl)-N^4-nitroso allophanate/]: the anti-tumor activity result in data set [1] (setting [6]) and in data set [3] was “exhibit anti-tumor activity” in each case.

Regarding `C#C[C@]1(OC(C)=O)CC[C@H]2[C@@H]3CCc4cc(OC(=O)N(CCCl)N=O)ccc4[C@H]3CC[C@@]21C` [17α-ethynylestradiol-17β-acetate-3-N-(2-chloroethyl)-N-nitroso carbamate], the anti-tumor activity entry in data set [1] (setting [6]) and in data set [3] was “exhibit anti-tumor activity” throughout.

For the compound `C#C[C@]1(OC(=O)N(CCCl)C(=O)N(CCCl)N=O)CC[C@H]2[C@@H]3CCC4=CC(=O)CC[C@@H]4[C@H]3CC[C@@]21C` [17α-ethynyl-19-nortestosterone-17β-/N^2,N^4-bis (2-chloroethyl)-N^4-nitroso allophanate/], the anti-tumor activity result in data set [1] (setting [6]) and in data set [3] was “exhibit anti-tumor activity” throughout.

Take `C[C@]12CC[C@@H](OC(=O)N(CCCl)N=O)C[C@@H]1CC[C@@H]1[C@@H]2CC[C@]2(C)[C@@H](OP(=O)(O)O)CC[C@@H]12` [androstanediol-3α-N-(2-chloroethyl)-N-nitroso carbamate-17β-dihydrogen phosphate]: the anti-tumor activity entry in data set [1] (setting [6]) and in data set [3] was “exhibit anti-tumor activity” each time.

For `C[C@]12C=CC(=O)C=C1CC[C@@H]1[C@@H]2C(=O)C[C@@]2(C)[C@H]1CC[C@]2(O)C(=O)COC(=O)N(CCCl)N=O` [prednisone-21-N-(2-chloroethyl)-N-nitroso carbamate], the anti-tumor activity result in data set [1] (setting [6]) and in data set [3] was “exhibit anti-tumor activity” in each case.

`CC(=O)[C@@]1(OC(=O)N(CCCl)N=O)CC[C@H]2[C@@H]3CCC4=CC(=O)CC[C@]4(C)[C@H]3CC[C@@]21C` [17α-hydroxy-progesterone,17α-N-(2-chloroethyl)-N-nitroso carbamate]: the anti-tumor activity result in data set [1] (setting [6]) and in data set [3] was “exhibit anti-tumor activity” each time.

These data come from patent US3963707A, “Novel N-nitroso compounds, compositions containing such compounds, processes for their preparation and methods of treatment therewith, and novel intermediates” (Aktiebolaget Leo, priority 1973, dated 1976).
